Test results reported in patent US20060142593A1, “Platinum compounds” (Sonus Pharmaceuticals, Inc., priority 2002, published 2006).

Columns and labels:
[1] = test system: MCF-7 cells; details: MCF-7, previously determined NCI values; cited from earlier work
[2] = test system: rats; assay: Blood urea nitrogen (BUN) as measure of renal function (Example 8); assay type: in vivo; details: rat plasma, 8 mg/kg cisplatin, 9.9 mg/kg carboplatin, 19.6 mg/kg S-9168
Protocol: (§1) Methods. Four groups of eight rats were cannulated as described in Example 6. […] The fourth group of rats was dosed with saline. Two rats in each group were sacrificed on days 4, 6, and 8 after treatment and 2 ml of blood were withdrawn. The blood sample was spun at 8000 rpm. for 2 minutes and the plasma was removed. BUN assays were performed using the Sigma Blood Urea Nitrogen Kit (Sigma Diagnostics Co., St. Louis, Mo.; Cat. No. 535-A).

[3] = test system: NCI-H460 cells; details: NCI-H460, previously determined NCI values; cited from earlier work
[4] = test system: HT-29 cells; details: HT-29, previously determined NCI values; cited from earlier work
[5] = test system: OVCAR-3 cells; assay: Cytotoxicity assay (sulforhodamine B), OVCAR-3; assay type: cell-based; details: OVCAR-3, Assay 6, 48 h drug exposure
Protocol: (§2) Methods. NCI-H460, HCT-15, OVCAR-3, CACO-2, MCF-7, HT-29, and HCT-116 cells were inoculated into 96 well microtiter plates in 100 microliters of medium at plating densities ranging from 5000 to 40000 cells/well, as given by NCI tables. After cell inoculation, the microtiter plates were incubated at 37° C., 5% CO2, 95% air, and 100% relative humidity for 24 hours. After 24 hours, 2 control plates of each cell line (time zero controls) were fixed by the addition of 30% trichloroacetic acid (TCA, final TCA concentration is 10% w/v). S-9168 was solubilized in saline. […] Additional 4, 10 fold, or ½ log serial dilutions were made to provide a total of five drug concentrations plus controls. Aliquots of 100 microliters of different drug dilutions were added to the appropriate microtiter wells already containing 100 microliters of medium. Following drug addition, the plates were incubated for an additional 48 hours under the same conditions provided above. The assays were terminated by the addition of cold TCA as described above for the time zero controls. The plates were then incubated at 4° C. for at least 60 minutes to fix the cells to the bottom of the plate. […] After staining, unbound dye was removed by washing five times with 1% acetic acid and the plates were allowed to air dry for 12-24 hours at room temperature. […]

[6] = test system: HCT-116 cells; details: HCT-116, previously determined NCI values; cited from earlier work
[7] = test system: HCT-15 cells; details: HCT-15, previously determined NCI values; cited from earlier work
[8] = test system: OVCAR-3 cells; details: OVCAR-3, previously determined NCI value; cited from earlier work
[9] = test system: rats; assay: Plasma creatinine as measure of renal function (Example 7); assay type: in vivo; details: rat plasma, 8 mg/kg cisplatin, 9.9 mg/kg carboplatin, 19.6 mg/kg S-9168
Protocol: Methods. Three groups of two rats were cannulated in the jugular vein and allowed to recover for approximately 24 hours. […] Blood samples (1.8 ml) were taken via the jugular vein canal before treatment (day 0) and 1, 2, 3, and 4 days after treatment, spun at 8000 rpm. for 2 minutes, and the plasma was removed. Creatinine assays were performed using the Sigma Creatinine Kit (Sigma Diagnostics Co., St. Louis, Mo.; Cat. No. 555-A) according to the Sigma creatinine assay protocol, in which the difference in color intensity at 500 nm of a sample containing creatinine and alkaline picrate solution before and after acidification is measured. The limit of linearity for the UV spectrophotometer was established by using the calibration curve procedure in the Sigma creatinine assay protocol.
as §1, with “Creatinine” for “BUN”, “as described in Example 6.” for “using the Sigma Blood Urea Nitrogen Kit (Sigma Diagnostics Co., St. Louis, Mo.; Cat. No. 535-A).”

[10] = test system: NCI-H460 cells; assay: Cytotoxicity assay (sulforhodamine B), NCI-H460; assay type: cell-based
Protocol: as §2

[11] = test system: HCT-15 cells; assay: Cytotoxicity assay (sulforhodamine B), HCT-15; assay type: cell-based
Protocol: as §2

[12] = test system: HCT-116 cells; assay: Cytotoxicity assay (sulforhodamine B), HCT-116; assay type: cell-based; details: HCT-116, Assay 9, 48 h drug exposure
Protocol: as §2

[13] = test system: MCF-7 cells; assay: Cytotoxicity assay (sulforhodamine B), MCF-7; assay type: cell-based
Protocol: as §2

[14] = test system: HT-29 cells; assay: Cytotoxicity assay (sulforhodamine B), HT-29; assay type: cell-based; details: HT-29, Assay 8, 48 h drug exposure
Protocol: as §2

SMILES: N.N.O=C([O-])C1(C(=O)[O-])CCC1.[Pt+2] [Carboplatin, cis-diamine[1,1-cyclobutnaedicarboxylate(2-)-O,O′-platinum(II)]
- GI50 (log), NCI values [1]: (−4.61) Pt mg/ml (log)
- average BUN level ([2]; day 4): 28.92 mg/dL
- average BUN level ([2]; day 6): 21.59 mg/dL
- average BUN level ([2]; day 8): 25.52 mg/dL
- GI50 (log), NCI values [3]: (−5.21) Pt mg/ml (log)
- GI50 (log), NCI values [4]: (−4.41) Pt mg/ml (log)
- GI50 (log) [5]: (−4.82) Pt mg/ml (log)
- GI50 (log), NCI values [6]: (−4.51) Pt mg/ml (log)
- GI50 (log), NCI values [7]: (−4.31) Pt mg/ml (log)
- GI50 (log), NCI value [8]: (−4.91) Pt mg/ml (log)
- average creatinine level ([9]; day 4): 0.6659 mg/dL
- average creatinine level ([9]; day 6): 0.7039 mg/dL
- average creatinine level ([9]; day 8): 0.5402 mg/dL
- GI50 (log) ([10]; NCI-H460, Assay 2, 48 h drug exposure): (−4.96) Pt mg/ml (log)
- GI50 (log) ([11]; HCT-15, Assay 2, 48 h drug exposure): (−4.31) Pt mg/ml (log)

SMILES: N.N.[Cl][Pt][Cl] [Cisplatin, cis-diaminedichloroplatinum(II)]
- GI50 (log), NCI values [1]: (−6.22) Pt mg/ml (log)
- GI50 (log), NCI values [3]: (−6.92) Pt mg/ml (log)
- GI50 (log), NCI values [4]: (−5.82) Pt mg/ml (log)
- GI50 (log), NCI values [6]: (−6.12) Pt mg/ml (log)
- GI50 (log), NCI values [7]: (−5.82) Pt mg/ml (log)
- GI50 (log) [12]: (−6.13) Pt mg/ml (log)
- GI50 (log), NCI value [8]: (−6.32) Pt mg/ml (log)
- GI50 (log) ([13]; MCF-7, Assay 2, 48 h drug exposure): (−5.10) Pt mg/ml (log)
- GI50 (log) ([13]; MCF-7, Assay 7, 48 h drug exposure): (−6.14) Pt mg/ml (log)
- GI50 (log) ([10]; NCI-H460, Assay 1, 48 h drug exposure): (−6.98) Pt mg/ml (log)
- GI50 (log) [14]: (−5.99) Pt mg/ml (log)
- GI50 (log) ([11]; HCT-15, Assay 5, 48 h drug exposure): (−6.65) Pt mg/ml (log)
